Our source for the Kd values is publication PMC7568570, “Resensitizing carbapenem- and colistin-resistant bacteria to antibiotics using auranofin” (Nature Communications, 2020).

The target in the experiment is T1, MCR-1 (Escherichia coli, UniProt A0A0R6L508).
T1 construct: gene mcr1; MCR-1-S, soluble periplasmic domain, residues 201-541 (200-541aa in Methods)
In words: equilibrium dialysis with ICP-MS (Kd); crystal structure by soaking at […] Å; TLC cleavage inhibition of full-length MCR-1. The class given is binding.

T1 sequence (A0A0R6L508 201-541): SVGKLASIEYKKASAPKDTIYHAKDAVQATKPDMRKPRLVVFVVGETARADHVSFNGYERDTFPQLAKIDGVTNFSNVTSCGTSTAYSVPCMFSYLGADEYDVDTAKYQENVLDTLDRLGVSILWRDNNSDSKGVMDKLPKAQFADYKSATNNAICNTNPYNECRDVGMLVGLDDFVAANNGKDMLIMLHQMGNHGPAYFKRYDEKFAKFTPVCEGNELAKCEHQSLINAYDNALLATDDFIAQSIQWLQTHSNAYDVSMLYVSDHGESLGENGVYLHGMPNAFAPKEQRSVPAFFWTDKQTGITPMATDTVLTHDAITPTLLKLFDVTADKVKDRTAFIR

Molecule `CC[P+](CC)(CC)[Au-][Cl]` [Au(PEt3)Cl, chloro(triethylphosphine)gold(I)] returned a Kd of 3.36 ± 0.38 µM.
